# Assay results taken from patent publication EP0383856B1, “USE OF PEPTIDES FOR INHIBITING BLOOD VESSEL BLOCKAGE” (SOCIETE DE CONSEILS DE […] D'APPLICATIONS SCIENTIFIQUES …, priority 1988, dated 1989).
# “And” between values parts separate entries of the source, which are not always exact repeats. Equal values may be shown once. Read-outs that look alike come from different tables or passages of the source.
# Columns and labels:
# [1] = system: myointimal proliferation of the carotid artery; assay: Air-drying injury of the rat carotid artery, myointimal proliferation (maximal intimal/media ratio, morphometry); assay type: in vivo, Sprague-Dawley rats
# Protocol: Male Sprague-Dawley rats, weighing […], obtained from Charles River were kept under controlled lighting conditions and fed rat chow and water ad libitum. Under sodium pentobarbital anesthesia the intima of the right carotid artery was subjected to an air-drying injury described by Fishman et al, Lab Invest., 32, 339 (1975). This procedure causes intimal hyperplasia that largely consists of proliferating intimal smooth muscle cells. In this model approximately 4 cm of the vessel is isolated and drained of blood. Air (20 ml/min) is blown through a 30 gauge needle for 5 min whereafter blood flow is reestablished. The contralateral carotid artery was also exposed but not air-dried. The rats were sacrificed 15 days later.
# The experiment consisted of a control group and ten treatment groups. The somatostatin analogs used were hepta- or octapeptides, namely BIM 23014 (Angiopeptin), BIM 23012, BIM 23027, BIM 23030 and BIM 23034. […] The animals were pretreated two days prior to the procedure and for a further five days following the endothelial injury. Two additional groups of animals were added in order to study whether Angiopeptin (20 µg/kg/day and 50 µg/kg/day) administered 30 min prior to the endothelial injury and for a further five days would protect against the myointimal proliferation.
# The animals were sacrificed on day 15 following the injury by exsanguination. The vascular system was flushed with normal saline and perfusion-fixed at 80 mmHg with 10% formalin. The carotid arteries were subsequently fixed, embedded and sectioned for light microscopy and morphometric analysis. The maximal intimal/media ratio is the distance from the lumen to the internal elastic lamina and the distance from the internal elastic lamina to the external elastic lamina. The distances were determined in each vessel using a digitizing system attached to a light microscope. The determinations were performed on three different cross sections of the vessel and each section was measured three times. The mean was calculated for each vessel. Differences between the groups were evaluated using Student's unpaired t-test.
# Myointimal Hyperplasia = assay: Myointimal hyperplasia in rabbits after balloon angioplasty of iliac artery and aorta (morphometry); assay type: in vivo, white New Zealand rabbits; settings: for percentage of inhibition of myointimal hyperplasia: 20 µg/kg/d; for % Intimal hyperplasia, Mean: group mean; for % Intimal hyperplasia: individual samples
# Protocol: Female and Male, white New Zealand rabbits (2.8-3.0 kg) were divided into two groups (A and B). Group A (vehicle control) received subcutaneous injections of physiological saline (0.2 ml) twice daily. […] The animals were treated the day before angioplasty, and until sacrifice about 3 weeks later. The angioplasty was done under general anesthesia with Ketamine and Xylazine. Each animal's left iliac artery and aorta were denuded with an angioplasty catheter (Fogarty). The angioplasty catheter was inserted into the left femoral artery and passed through the vessel to the thoracic aorta. The catheter was then reciprocated three times. The animals were all sacrificed from days 22-24 after angioplasty. The aorta and iliac arteries were fixed in situ via perfusion with formaldehyde under constant perfusion pressure.
# Intimal hyperplasia was determined on elastin-stained (Van Giesen) horizontally-cut sections. The sections were obtained from (i) the aorta at the level of the renal artery, (ii) the common iliac artery at the level of bifurcation, and (iii) the external iliac artery just above the inguinal ligament. The area of intimal hyperplasia and total vessel area were determined by morphometry. The percentage of intimal hyperplasia was expressed as follows: [formula] Single determinations were made on three segments of each aorta and the two iliac arteries of each animal. The percentage of intimal hyperplasia was determined as the mean of the two closest measurements of each vessel.
# [2] = system: smooth muscle cell proliferation; assay: Primate balloon catheter injury of aorta and femoral arteries, smooth muscle cell proliferation; assay type: in vivo, cynomologous macaques; settings: aorta and left and right femoral arteries; i.m. slow release system, total 50 µg/kg/day; one treated animal versus one control; five weeks
# Protocol: In order to obtain a primate coronary angioplasty model which would be suited for evaluation of Angiopeptin, a feasibility study was performed on primates which were made available from the colony at Bowman-Gray Medical School, Winston-Salem, North Carolina. These animals were culled from the colony due to failure of the primates to satisfactorily elevate blood lipids when administered a high cholesterol diet. Young male cynomologous macaques weighing approximately 3.5 kg were used after an equilibration period of more than a week in a primate facility.
# The animals were sedated with Ketamine and maintained with 1% halothane in oxygen. The aorta and femoral arteries were injured by a balloon catheter (USCI, Band). After five weeks the primates were anesthetized and sacrificed. The aorta and femoral arteries were removed and fixed in formaldehyde for morphometric analysis. […]
# The maximal intimal/media ratio (distance from lumen to internal elastic lamina/distance from internal elastic lamina to external elastic lamina) was determined in each vessel using a digitizing system attached to a light microscope. The determinations were done on three different cross sections of the vessel and each section was measured three times and each three measurements were averaged.
# [3] = system: myointimal cell proliferation in the aortas of rabbits; assay: Rabbit aorta 72 hours after balloon angioplasty: wet weight, protein, DNA/protein, 3-H thymidine incorporation; assay type: in vivo, New Zealand White Rabbits; settings: for Levels of Proteins (total protein content of the injured aortas): Fig. 2; for DNA/Protein Ratio: Fig. 3; for Thymidine (3-H) Incorporation (rates of cell proliferation): Fig. 4
# Protocol: New Zealand White Rabbits were anesthetised with Rompun (Xylazine) and Ketalar (Ketamine) and a cannula (3F Fogarty) was inserted from the femoral artery. The balloon was inflated at a constant pressure and the aorta was deendothelialised by angioplasty. The process was repeated three times and the wound site was closed. The animals were sacrificed 72 hours after balloon angioplasty and after removing the adventitia the aorta was cut into fine rings. These rings were incubated in the presence of 3-H thymidine and the radioactivity was determined after processing the tissue. Simultaneous measurements of DNA and protein contents were also made in these tissues.
# Eight injections of Angiopeptin were made: on the morning and evening of the day prior to ballooning; two on the day of the procedure; and two on each of the following two days. The total daily dose was 2, 20, or 200 µg/Kg body weight.
# [4] = system: smooth muscle pig left coronary artery explants; assay: H3-thymidine incorporation in denuded pig left coronary artery explants; assay type: cell-based, Domestic pig; settings: 24 hr, individual segments
# Protocol: Domestic pig hearts were obtained from a slaughter house immediately after the animals were sacrificed. The hearts were harvested and placed in ice-cold Kreb's Ringer buffer and transported to the laboratory. The left coronary artery (LAD) was dissected in aseptic conditions and divided into pieces of 5 mm. The segments were denuded from the endothelium by gently introducing a metallic rod in the lumen. The tissues were placed in sterile multiwell culture dishes in 1 ml of culture media (DMEM with antibiotics) and without fetal calf serum. H³-thymidine (2.5 uCi/ml) and increasing concentrations of angiopeptin (10-1000 ng/ml) were added to the medium. Segments which were incubated with 3 different concentrations of forskolin were used as a positive control in each experiment. The incubation period was 24 hr at 37°C and 5% CO₂. The tissues were washed with phosphate saline buffer and placed in a solution of cold thymidine for one hour and then frozen in liquid nitrogen, ground and lysed with a hypotonic solution. The lysed tissues were further incubated with proteinase K overnight at 50°C. The radioactivity, content of protein and DNA were measured.
# growth hormone release = settings: in vivo, from Heiman et al., Coy et al., Tolis et al., cited from earlier work
# [5] = common iliac artery, female rabbits
# [6] = common iliac artery, male rabbits
# [7] = external iliac artery, female rabbits
# [8] = external iliac artery, male rabbits
structure (smiles),measurement,setting,value
"CC(C)[C@@H]1NC(=O)[C@H](CCCCN)NC(=O)[C@@H](Cc2c[nH]c3ccccc23)NC(=O)[C@H](Cc2ccc(O)cc2)NC(=O)[C@@H](NC(=O)[C@H](N)Cc2ccc3ccccc3c2)CSSC[C@@H](C(=O)N[C@H](C(N)=O)[C@@H](C)O)NC1=O [Angiopeptin, D-Nal-Cys-Tyr-D-Trp-Lys-Val-Cys-Thr-NH₂]",myointimal proliferation of the carotid artery following endothelial injury by air drying,"[1]; 20 µg/kg/day s.c. in two divided doses, from two days prior to injury and five days after, sacrifice day 15",effective
same,myointimal proliferation of the carotid artery following endothelial injury by air drying,"[1]; 50 µg/kg/day s.c. in two divided doses, from two days prior to injury and five days after, sacrifice day 15",effective
same,myointimal proliferation,"[1]; 50 µg/kg/day, started 30 min prior to the arterial injury and for a further five days",significantly (p<0.01) inhibited
same,myointimal proliferation of the carotid artery following endothelial injury by air drying,"[1]; overall statement for the doses used (20 and 50 µg/kg/day s.c.), started two days prior to injury",inhibited significantly (P<0.01)
same,percentage of inhibition of myointimal hyperplasia,"Myointimal Hyperplasia; aorta, female rabbits",~43%
same,"% Intimal hyperplasia, Mean","Myointimal Hyperplasia; aorta, female rabbits",12.5%
same,% Intimal hyperplasia,"Myointimal Hyperplasia; aorta, female rabbits",13.0% and 10.7% and 12.8% and 19.5% and 6.4%
same,percentage of inhibition of myointimal hyperplasia,"Myointimal Hyperplasia; aorta, male rabbits",~32%
same,"% Intimal hyperplasia, Mean","Myointimal Hyperplasia; aorta, male rabbits",14.8%
same,% Intimal hyperplasia,"Myointimal Hyperplasia; aorta, male rabbits",15.9% and 17.0% and 12.4% and 13.3% and 13.8% and 15.7% (2×)
same,percentage of inhibition of myointimal hyperplasia,Myointimal Hyperplasia; [5],~33%
same,"% Intimal hyperplasia, Mean",Myointimal Hyperplasia; [5],13.1%
same,% Intimal hyperplasia,Myointimal Hyperplasia; [5],6.5% and 9.3% and 9.5% and 19.7% and 20.5% and 15.3% and 16.6% and 7.7%
same,percentage of inhibition of myointimal hyperplasia,Myointimal Hyperplasia; [6],~39%
same,"% Intimal hyperplasia, Mean",Myointimal Hyperplasia; [6],14.1%
same,% Intimal hyperplasia,Myointimal Hyperplasia; [6],14.9% and 16.0% and 6.4% and 17.4% and 13.9% and 15.8% and 14.0%
same,percentage of inhibition of myointimal hyperplasia,Myointimal Hyperplasia; [7],about 41%
same,"% Intimal hyperplasia, Mean",Myointimal Hyperplasia; [7],20.7%
same,% Intimal hyperplasia,Myointimal Hyperplasia; [7],17.8% and 26.4% and 15.2% and 21.3% and 33.6% and 24.1% and 20.6% and 6.6%
same,percentage of inhibition of myointimal hyperplasia,Myointimal Hyperplasia; [8],~20%
same,"% Intimal hyperplasia, Mean",Myointimal Hyperplasia; [8],24.4%
same,% Intimal hyperplasia,Myointimal Hyperplasia; [8],30.5% and 19.2% and 25.7% and 26.5% and 22.3% and 37.9% and 22.2%
same,inhibition of smooth muscle cell proliferation,[2],nearly complete inhibition
same,Levels of Proteins (total protein content of the injured aortas),[3]; 2 µg/kg body wt.,lowered the total protein content
same,DNA/Protein Ratio,[3]; 20 µg/kg body weight,significantly lowered
same,Thymidine (3-H) Incorporation (rates of cell proliferation),[3]; 20 µg/kg body wt.,significantly lower
same,DNA/Protein Ratio,[3]; 200 µg/kg body wt.,reflected the inhibitory influence
same,Thymidine (3-H) Incorporation (rates of cell proliferation),[3]; 200 µg/kg,still inhibited the myointimal proliferation
same,Wet Weight of aortas,"[3]; 2, 20 and 200 µg/kg body wt. daily, 72 hours after balloon angioplasty, Fig. 1",does not seem to influence
same,Levels of Proteins (total protein content of the injured aortas),[3]; higher doses (20 and 200 µg/kg body wt.),did not affect the levels of total proteins
same,CPM,[4]; Angiopeptin 10 ng/ml,35113.84 CPM and 46392.32 CPM and 27312.80 CPM and 55980.00 CPM
same,CPM,[4]; Angiopeptin 20 ng/ml,26279.81 CPM and 39027.27 CPM and 39706.01 CPM and 21562.08 CPM
same,CPM,[4]; Angiopeptin 50 ng/ml,24269.18 CPM and 40768.09 CPM and 18983.78 CPM and 18942.16 CPM
same,CPM,[4]; Angiopeptin 100 ng/ml,20794.85 CPM and 32402.31 CPM and 22033.48 CPM and 26227.64 CPM
same,CPM,[4]; Angiopeptin […] (so in the source),18325.51 CPM and 27260.98 CPM and 30226.99 CPM and 32344.58 CPM
same,inhibition of growth hormone release,growth hormone release,less active
same,inhibition of growth hormone release,growth hormone release; listed as BIM 23014,potent inhibitors of growth hormone release
